# In patent US10836747B2, “Ethane-sulfonate salt of quinoline derivative” (ONO PHARMACEUTICAL CO., LTD., priority 2017, dated 2020):
# Columns and labels:
# [1] = Evaluation of hygroscopicity (DVS; dynamic vapor sorption); type: physicochemical; details: for Weight increase at relative humidity of 90% (%): DVS, 25° C., relative to weight at 0% RH after drying
# Description: [3] Evaluation of Hygroscopicity (DVS; Dynamic Vapor Sorption)
# Device: SGA-100 manufactured by TA Instruments,
# Sample amount: 10 to 20 mg,
# Measurement temperature: 25° C.,
# Drying before measurement: 60° C., 1 hour,
# Starting humidity: 0% RH,
# Maximum humidity: 90% RH,
# Equilibrium criteria: weight change rate in 5 minutes is 0.01% or less,
# Sampling interval: 30 seconds,
# Data recording interval: two minutes or time at which weight change rate become 0.01% or more.
# Various acid addition salts of the compounds A produced in Examples (Examples 7, 8, 9, 10, 11, 12, 13, and 14) and the compound of the present invention (Example 6) were subjected to hygroscopicity evaluation. Based on the measurement conditions shown in [3] in [Study of acid addition salt of compound A], hygroscopicity was evaluated. Sample weight was recorded after the weight of the sample in the relative humidity set every 10% became equilibrium. After drying, the change amount (%) was converted on the basis of the weight when the relative humidity was 0%.
# [2] = Light stability evaluation of simple formulation (mixed with CEOLUS PH-301); type: physicochemical; details: simple formulation with CEOLUS PH-301 1 to 5 (weight ratio), 2500 Lux D65 lamp, 25° C., 20 days
# Description: (§1) Ethanesulfonate of the compound A produced in Example 6 and p-toluenesulfonate of the compound A produced in Example 9 were evaluated in terms of the light stability. Each acid addition salt was weighed in a laboratory tube in about 1.8 to 2.2 mg, capped with a plastic cap and wrapped with a parafilm. A sample placed in the transparent laboratory tube was used as an exposure sample, a sample placed in the brown laboratory tube was used as a light shielded sample, and a sample placed in the brown laboratory tube and further covered with aluminum foil was used as an aluminum foil completely shielded sample. Each sample was exposed to light whose total illumination of 1200000 Lux-h or more and total near ultraviolet radiation energy of 200 W·h/m^2 or more by exposing to 2500 Lux D65 lamp at 25° C. for 20 days.
# (§2) The area percentage of ethanesulfonate of the compound A and p-toluenesulfonate of the compound A which were not exposed to light and stored at −20° C., and each acid addition salt of the compound A subjected to the above light stability test were calculated under the measurement conditions mentioned above. Next, in each acid addition salt of the compound A, the rate of the area percentage of the acid addition salt of the compound A which was not exposed to light and stored at −20° C. (area percentage of acid addition salt of compound A exposed to light for 20 days/area percentage of acid addition salt of compound A which is not exposed to light and stored at −20° C.×100) was calculated as the residual rate of each compound.
# Each acid addition salt of the compound A, regarding to ethanesulfonate of the compound A produced in Example 6 and p-toluenesulfonate of the compound A produced in Example 9, was mixed with CEOLUS (registered trademark) PH-301 (Asahi Kasei Corporation) in a mixing ratio of 1 to 5 (weight ratio) on a medicine paper with a spatula to prepare a simple formulation. The simple formulation was weighed into a laboratory tube in about 3 mg, capped with a plastic cap, and wrapped with a parafilm. Hereinafter, the light exposure condition of the compound, and the measurement conditions were corresponding to the […] of the stability of the active pharmaceutical ingredient of above (1).
# [3] = Light stability evaluation of active pharmaceutical ingredient; type: physicochemical; details: for residual rate %: active pharmaceutical ingredient, 2500 Lux D65 lamp, 25° C., 20 days
# Description: as §1
# Detector: ultraviolet spectrometer (measurement wavelength: 215 nm),
# Column: Imtakt Unison UK-C18 (3 μm, inner diameter: 4.6 mm×150 mm),
# Column temperature: 40° C.,
# Mobile phase: A liquid: 20 mM KH2PO4 aq. (pH 3.0), B liquid: CH3CN,
# Flow rate: 1.0 mL/minute,
# Area measurement range: 60 minutes
# Sample concentration: 0.5 mg/mL.
# as §2
# [4] = system: CYP; details: mentioned in Patent Literature 5 (WO2015/012298); cited from earlier work
# [5] = molecular target: T1, Axl (Homo sapiens, UniProt P30530); details: mentioned in Patent Literature 5 (WO2015/012298); cited from earlier work
# T1 sequence (P30530 26-894): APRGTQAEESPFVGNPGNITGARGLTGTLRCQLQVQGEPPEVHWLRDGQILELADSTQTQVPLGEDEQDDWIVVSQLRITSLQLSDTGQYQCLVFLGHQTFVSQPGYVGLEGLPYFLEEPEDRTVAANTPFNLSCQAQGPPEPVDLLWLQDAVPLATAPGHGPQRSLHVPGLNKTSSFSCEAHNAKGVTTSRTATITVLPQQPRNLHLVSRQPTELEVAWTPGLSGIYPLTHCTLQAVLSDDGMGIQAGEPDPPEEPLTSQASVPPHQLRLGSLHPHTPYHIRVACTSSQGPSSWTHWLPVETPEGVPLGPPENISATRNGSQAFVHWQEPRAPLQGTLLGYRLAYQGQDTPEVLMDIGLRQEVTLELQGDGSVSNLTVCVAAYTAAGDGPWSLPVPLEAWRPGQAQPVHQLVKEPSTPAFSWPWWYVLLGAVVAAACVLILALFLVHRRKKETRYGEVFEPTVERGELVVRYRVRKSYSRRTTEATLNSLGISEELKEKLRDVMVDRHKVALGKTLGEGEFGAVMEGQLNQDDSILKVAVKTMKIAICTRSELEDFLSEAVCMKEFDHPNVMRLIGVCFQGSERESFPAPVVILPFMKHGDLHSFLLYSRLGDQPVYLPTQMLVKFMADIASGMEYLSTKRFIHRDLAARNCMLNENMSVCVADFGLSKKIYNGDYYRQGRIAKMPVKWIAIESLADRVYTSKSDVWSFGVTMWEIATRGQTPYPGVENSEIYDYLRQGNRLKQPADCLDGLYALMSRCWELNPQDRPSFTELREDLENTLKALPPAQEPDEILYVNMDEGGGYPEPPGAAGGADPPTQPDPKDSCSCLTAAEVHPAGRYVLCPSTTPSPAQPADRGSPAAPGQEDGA
# [6] = Brown bottle (light shielded sample)
# [7] = Transparent bottle (exposure sample)
smiles,measurement,setting,value
"COc1cc2nccc(Oc3ccc(NC(=O)c4cc5c(n(-c6ccccc6)c4=O)CCCC5=O)nc3)c2cc1OC.O=S(=O)(O)c1ccccc1 [Benzensuplhonate, N-{5-[(6,7-dimethoxy-4-quinolinyl)oxy]-2-pyridinyl}-2,5-dioxo-1-phenyl-1,2,5,6,7,8-hexahydro-3-quinolinecarboxamide benzenesulfonate]",Weight increase at relative humidity of 90% (%),[1],7.2%
"COc1cc2nccc(Oc3ccc(NC(=O)c4cc5c(n(-c6ccccc6)c4=O)CCCC5=O)nc3)c2cc1OC.O=S(=O)(O)CCS(=O)(=O)O [Ethanedisulfonate, N-{5-[(6,7-dimethoxy-4-quinolinyl)oxy]-2-pyridinyl}-2,5-dioxo-1-phenyl-1,2,5,6,7,8-hexahydro-3-quinolinecarboxamide ethanedisulfonate]",Weight increase at relative humidity of 90% (%),[1],46.4%
"CCS(=O)(=O)O.COc1cc2nccc(Oc3ccc(NC(=O)c4cc5c(n(-c6ccccc6)c4=O)CCCC5=O)nc3)c2cc1OC [Ethanesulfonate, N-{5-[(6,7-dimethoxy-4-quinolinyl)oxy]-2-pyridinyl}-2,5-dioxo-1-phenyl-1,2,5,6,7,8-hexahydro-3-quinolinecarboxamide ethanesulfonate]",Weight increase at relative humidity of 90% (%),[1],0.7%
same,rate of weight change upon moisture absorption (in words),[1]; among various acid addition salts of the compound A,small rate of weight change upon moisture absorption
same,residual rate %,[2]; Aluminum foil shielding,99.7%
same,residual rate %,[2]; Brown bottle,98.4%
same,residual rate %,[2]; Transparent bottle,59.3%
same,residual rate %,[3]; Aluminum foil shielding,100.0%
same,residual rate %,[3]; [6],99.5%
same,residual rate %,[3]; [7],94.5%
same,stability to light (in words),"[3]; compared with p-toluenesulfonate of the compound A, API and simple formulation",more excellent also in terms of the stability to light
"COc1cc2nccc(Oc3ccc(NC(=O)c4cc5c(n(-c6ccccc6)c4=O)CCCC5=O)nc3)c2cc1OC.Cl [Hydrochloride, N-{5-[(6,7-dimethoxy-4-quinolinyl)oxy]-2-pyridinyl}-2,5-dioxo-1-phenyl-1,2,5,6,7,8-hexahydro-3-quinolinecarboxamide hydrochloride]",Weight increase at relative humidity of 90% (%),[1],8.0%
"COc1cc2nccc(Oc3ccc(NC(=O)c4cc5c(n(-c6ccccc6)c4=O)CCCC5=O)nc3)c2cc1OC.O=S(=O)(O)CCO [Isethionate, N-{5-[(6,7-dimethoxy-4-quinolinyl)oxy]-2-pyridinyl}-2,5-dioxo-1-phenyl-1,2,5,6,7,8-hexahydro-3-quinolinecarboxamide isethionate]",Weight increase at relative humidity of 90% (%),[1],14.5%
"COc1cc2nccc(Oc3ccc(NC(=O)c4cc5c(n(-c6ccccc6)c4=O)CCCC5=O)nc3)c2cc1OC.CS(=O)(=O)O [Methanesulfonate, N-{5-[(6,7-dimethoxy-4-quinolinyl)oxy]-2-pyridinyl}-2,5-dioxo-1-phenyl-1,2,5,6,7,8-hexahydro-3-quinolinecarboxamide methanesulfonate]",Weight increase at relative humidity of 90% (%),[1],4.0%
"COc1cc2nccc(Oc3ccc(NC(=O)c4cc5c(n(-c6ccccc6)c4=O)CCCC5=O)nc3)c2cc1OC.Cc1ccc(S(=O)(=O)O)cc1 [P-toluenesulfonate, N-{5-[(6,7-dimethoxy-4-quinolinyl)oxy]-2-pyridinyl}-2,5-dioxo-1-phenyl-1,2,5,6,7,8-hexahydro-3-quinolinecarboxamide p-toluenesulfonate]",Weight increase at relative humidity of 90% (%),[1],2.6%
same,residual rate %,[2]; Aluminum foil shielding,99.9%
same,residual rate %,[2]; Brown bottle,83.3%
same,residual rate %,[2]; Transparent bottle,40.7%
same,residual rate %,[3]; Aluminum foil shielding,100.6%
same,residual rate %,[3]; [6],92.7%
same,residual rate %,[3]; [7],86.1%
"COc1cc2nccc(Oc3ccc(NC(=O)c4cc5c(n(-c6ccccc6)c4=O)CCCC5=O)nc3)c2cc1OC.O=P(O)(O)O [Phosphate, N-{5-[(6,7-dimethoxy-4-quinolinyl)oxy]-2-pyridinyl}-2,5-dioxo-1-phenyl-1,2,5,6,7,8-hexahydro-3-quinolinecarboxamide phosphate]",Weight increase at relative humidity of 90% (%),[1],5.5%
"COc1cc2nccc(Oc3ccc(NC(=O)c4cc5c(n(-c6ccccc6)c4=O)CCCC5=O)nc3)c2cc1OC.O=S(=O)(O)O [Sulfate, N-{5-[(6,7-dimethoxy-4-quinolinyl)oxy]-2-pyridinyl}-2,5-dioxo-1-phenyl-1,2,5,6,7,8-hexahydro-3-quinolinecarboxamide sulfate]",Weight increase at relative humidity of 90% (%),[1],7.2%
"COc1cc2nccc(Oc3ccc(NC(=O)c4cc5c(n(-c6ccccc6)c4=O)CCCC5=O)nc3)c2cc1OC [compound A, N-{5-[(6,7-dimethoxy-4-quinolinyl)oxy]-2-pyridinyl}-2,5-dioxo-1-phenyl-1,2,5,6,7,8-hexahydro-3-quinolinecarboxamide]",CYP inhibitory action (in words),[4],low CYP inhibitory action
same,Axl-selective inhibiting activity (in words),[5],Axl-selective inhibiting activity
